Assay results as given in ChEMBL document CHEMBL1201862, “PubChem BioAssay data set” (2004).
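Five concentrations, 48 hours, 96-well plates. GI50 marks 50% less growth.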 The source made the active and inactive calls. Rule as the data show it: active = GI50 up to about 1.1 µM and inactive = higher.

Legend:
Assay in all cases: NCI anticancer screen, dose series, 48 h
HOP-92 = tested on: HOP-92
SF-295 = tested on: SF-295
K562 = tested on: K562
HCC 2998 = tested on: HCC 2998
HT-29 = tested on: HT-29
EKVX = tested on: EKVX
RPMI-8226 = tested on: RPMI-8226
SK-MEL-2 = tested on: SK-MEL-2
TK-10 = tested on: TK-10
UACC-257 = tested on: UACC-257
OVCAR-3 = tested on: OVCAR-3
LOX IMVI = tested on: LOX IMVI
HCT-15 = tested on: HCT-15
MCF7 = tested on: MCF7
786-0 = tested on: 786-0
NCI-H522 = tested on: NCI-H522
Malme-3M = tested on: Malme-3M
NCI-H226 = tested on: NCI-H226
MDA-N = tested on: MDA-N

With `CC(C)(CC1(C)NC(=O)NC1=O)OCc1ccccc1` (configuration not stated) the GI50 (HOP-92) was > 100 µM (inactive), the GI50 (SF-295) was > 100 µM (inactive) and the GI50 (K562) was > 100 µM (inactive). For the same molecule, the GI50 (HCC 2998) was > 100 µM (inactive), the GI50 (HT-29) was > 100 µM (inactive) and the GI50 (EKVX) was > 100 µM (inactive). For the same molecule, the GI50 (RPMI-8226) was > 100 µM (inactive), the GI50 (SK-MEL-2) was > 100 µM (inactive) and the GI50 (TK-10) was > 100 µM (inactive). The GI50 (UACC-257) was > 100 µM (inactive), the GI50 (OVCAR-3) was > 100 µM (inactive) and the GI50 (LOX IMVI) was > 100 µM (inactive). For the same molecule, the GI50 (HCT-15) was over 100 µM, the GI50 (MCF7) was > 100 µM (inactive) and the GI50 (786-0) was > 100 µM (inactive). For the same molecule, the GI50 (NCI-H522) was > 100 µM (inactive) and the GI50 (Malme-3M) was > 100 µM (inactive).

`CN1CN(c2ccccc2)C2(CCN(CCCCCCF)CC2)C1=O` was tested, and the GI50 (SF-295) was 82 µM (inactive), the GI50 (K562) was > 100 µM (inactive) and the GI50 (HT-29) was 30.9 µM (inactive). For the same molecule, the GI50 (EKVX) was 48.6 µM (inactive), the GI50 (RPMI-8226) was > 100 µM (inactive) and the GI50 (TK-10) was 65.8 µM (inactive). For the same molecule, the GI50 (UACC-257) was 35.2 µM (inactive), the GI50 (OVCAR-3) was > 100 µM (inactive) and the GI50 (LOX IMVI) was > 100 µM (inactive). For the same molecule, the GI50 (HCT-15) was 54.5 µM, the GI50 (MCF7) was 23.8 µM (inactive) and the GI50 (NCI-H226) was > 100 µM (inactive). For the same molecule, the GI50 (786-0) was > 100 µM (inactive), the GI50 (NCI-H522) was > 100 µM (inactive) and the GI50 (MDA-N) was 63.8 µM (inactive). For the same molecule, the GI50 (Malme-3M) was > 100 µM (inactive).

`CN(C)CCN1C(=O)c2ccccc2C1(O)c1ccc(Cl)cc1` (configuration not stated) was tested, and the GI50 (SF-295) was > 100 µM (inactive), the GI50 (K562) was > 100 µM (inactive) and the GI50 (HCC 2998) was 62.7 µM (inactive). The GI50 (HT-29) was 42.7 µM (inactive), the GI50 (EKVX) was > 100 µM (inactive) and the GI50 (RPMI-8226) was > 100 µM (inactive). For the same molecule, the GI50 (TK-10) was > 100 µM (inactive), the GI50 (UACC-257) was 24.8 µM (inactive) and the GI50 (OVCAR-3) was > 100 µM (inactive). For the same molecule, the GI50 (HCT-15) was over 100 µM, the GI50 (MCF7) was > 100 µM (inactive) and the GI50 (NCI-H226) was 66.7 µM (inactive). For the same molecule, the GI50 (786-0) was > 100 µM (inactive), the GI50 (MDA-N) was 79.4 µM (inactive) and the GI50 (Malme-3M) was 28.6 µM (inactive).

`CCOC(=O)NNC(=O)NCCCCNC(=O)NNC(=O)OCC` was tested, and the GI50 (HOP-92) was > 100 µM (inactive), the GI50 (SF-295) was > 100 µM (inactive) and the GI50 (K562) was > 100 µM (inactive). The GI50 (HT-29) was > 100 µM (inactive), the GI50 (EKVX) was > 100 µM (inactive) and the GI50 (RPMI-8226) was > 100 µM (inactive). The GI50 (SK-MEL-2) was > 100 µM (inactive), the GI50 (TK-10) was > 100 µM (inactive) and the GI50 (UACC-257) was > 100 µM (inactive). The GI50 (OVCAR-3) was > 100 µM (inactive), the GI50 (LOX IMVI) was > 100 µM (inactive) and the GI50 (HCT-15) was over 100 µM. For the same molecule, the GI50 (NCI-H226) was > 100 µM (inactive), the GI50 (786-0) was > 100 µM (inactive) and the GI50 (NCI-H522) was > 100 µM (inactive). For the same molecule, the GI50 (MDA-N) was > 100 µM (inactive).

`Oc1cccc(-c2ccc3c4c2O[C@H]2c5[nH]c6ccccc6c5C[C@@]5(O)[C@@H](C3)N(CC3CC3)CC[C@]425)c1` was tested, and the GI50 (HOP-92) was 2.13 µM (inactive), the GI50 (SF-295) was 1.82 µM (inactive) and the GI50 (HT-29) was 1.7 µM (inactive). For the same molecule, the GI50 (EKVX) was 13.5 µM (inactive), the GI50 (SK-MEL-2) was 2.46 µM (inactive) and the GI50 (TK-10) was 2.24 µM (inactive). For the same molecule, the GI50 (OVCAR-3) was 2 µM (inactive), the GI50 (LOX IMVI) was 1.8 µM (inactive) and the GI50 (HCT-15) was 1.67 µM. For the same molecule, the GI50 (NCI-H226) was 3.75 µM (inactive), the GI50 (786-0) was 1.62 µM (inactive) and the GI50 (MDA-N) was 1.67 µM (inactive). For the same molecule, the GI50 (Malme-3M) was 1.86 µM (inactive).

`Nc1nc(Cl)c2ncn(Cc3ccc(CCl)cc3)c2n1` was tested, and the GI50 (HOP-92) was 1.64 µM (inactive), the GI50 (SF-295) was 10.8 µM (inactive) and the GI50 (K562) was 3.61 µM (inactive). For the same molecule, the GI50 (HCC 2998) was 0.497 µM (active), the GI50 (HT-29) was 9.73 µM (inactive) and the GI50 (EKVX) was 2.58 µM (inactive). The GI50 (RPMI-8226) was 3.83 µM (inactive), the GI50 (SK-MEL-2) was 11.5 µM (inactive) and the GI50 (TK-10) was 16.6 µM (inactive). For the same molecule, the GI50 (UACC-257) was 12.5 µM (inactive), the GI50 (OVCAR-3) was 2.16 µM (inactive) and the GI50 (LOX IMVI) was 5.41 µM (inactive). The GI50 (HCT-15) was 4.95 µM, the GI50 (MCF7) was 2.81 µM (inactive) and the GI50 (NCI-H226) was 10.4 µM (inactive). For the same molecule, the GI50 (786-0) was 5.31 µM (inactive), the GI50 (NCI-H522) was 10.7 µM (inactive) and the GI50 (Malme-3M) was 11.3 µM (inactive).

In the case of `O=c1n(-c2ccccc2)c(=O)n2n1C1C=CC2CCCCCC1`, the GI50 (HOP-92) is reported as > 100 µM (inactive), the GI50 (SF-295) is reported as > 100 µM (inactive) and the GI50 (HCC 2998) is reported as > 100 µM (inactive). The GI50 (HT-29) was > 100 µM (inactive), the GI50 (EKVX) was > 100 µM (inactive) and the GI50 (RPMI-8226) was 60 µM (inactive). The GI50 (SK-MEL-2) was > 100 µM (inactive), the GI50 (TK-10) was > 100 µM (inactive) and the GI50 (UACC-257) was > 100 µM (inactive). The GI50 (OVCAR-3) was 4.99 µM (inactive), the GI50 (LOX IMVI) was > 100 µM (inactive) and the GI50 (HCT-15) was over 100 µM. The GI50 (MCF7) was > 100 µM (inactive), the GI50 (NCI-H226) was > 100 µM (inactive) and the GI50 (786-0) was > 100 µM (inactive). For the same molecule, the GI50 (NCI-H522) was 22.8 µM (inactive) and the GI50 (Malme-3M) was > 100 µM (inactive).

In the case of `Nc1c(C(=O)c2ccccc2)nnc2ccccc12`, the GI50 (HOP-92) is reported as 18.8 µM (inactive), the GI50 (K562) is reported as 30.8 µM (inactive) and the GI50 (HCC 2998) is reported as 23.4 µM (inactive). For the same molecule, the GI50 (HT-29) was 25.8 µM (inactive), the GI50 (EKVX) was 22.6 µM (inactive) and the GI50 (RPMI-8226) was 33.7 µM (inactive). For the same molecule, the GI50 (SK-MEL-2) was 17.4 µM (inactive), the GI50 (TK-10) was 24.3 µM (inactive) and the GI50 (UACC-257) was 28.2 µM (inactive). For the same molecule, the GI50 (LOX IMVI) was 32.4 µM (inactive), the GI50 (HCT-15) was 30.1 µM and the GI50 (MCF7) was 20.4 µM (inactive). The GI50 (NCI-H226) was 30.4 µM (inactive), the GI50 (786-0) was 30.5 µM (inactive) and the GI50 (Malme-3M) was 27 µM (inactive).
